The results in this text go back to patent US20240018166A1, “SULFONYL UREA NLRP3 INFLAMMASOME INHIBITORS” (Venatorx Pharmaceuticals, Inc., priority 2020, published 2024).

The test system of data set [1] is IL-1β. The experiment in a line: IL-1β inhibition assay (ELISA/HTRF of culture supernatants). The data set is classed as cell-based. The note with it: Homo sapiens, PMA-differentiated THP-1 cells, tested 10 μM to 0.003 μM. The procedure: Human monocyte-like THP-1 cells were grown in RPMI media supplemented with 10% FBS (growth media) at 37° C., 5% CO2. Cell cultures were passaged every three days and maintained at a density of 5×10^5 to 1×10^6 cells per mL.
Compounds were prepared as 10 mM stock solutions in 100% DMSO. […] Each 200× dilution was then diluted 20-fold in growth media (step down dilution) to yield a 10× final assay concentration range. All compounds were tested over a final assay concentration range of 10 μM to 0.003 μM.
The level of IL-10 in supernatants from PMA-differentiated THP-1 cells was determined by ELISA using either the R&D Systems Human IL-1 beta/IL-1F2 Quantikine ELISA or the cisbio HTRF human IL 1 beta kit. Manufacturer's protocols were followed without deviation.
Background values were subtracted and resulting values were converted to percentage of vehicle-treated controls. Data was analyzed via GraphPad Prism 7.0 using a non-linear regression (variable slope (four-parameter)) equation.
Table 2 provides IL-10 ELISA EC50 values for example compounds. A indicates EC50>10 μM; B indicates EC50 between 1 and 10 μM (inclusive); C indicates EC50<1 μM.

The nature of data set [2]: MTT cell viability assay, THP-1 cells. It counts as cell-based. The following applies: human, unstimulated THP-1 cells, read-out: THP-1 Cytotoxicity CC50. The procedure: In order to assess the cytotoxicity of the compounds, an MTT cell viability assay was performed in either unstimulated THP-1 or HepG2 cells as follows. 5×10^4 THP-1 or 5×10^3 HepG2 cells were seeded into each well of a 96-well plate in 90 μL of media. Compounds were added to cells as described for the IL-10 assay and returned to the incubator for an additional 72 hours. Next, 25 μL of MTT solution (5 mg/mL in sterile PBS) was added to each well. Plates were incubated for 3 hours at 37° C., 5% CO2. Next, for THP-1 cells, 100 μl of MTT solubilization solution (40% Dimethylformamide, 2% glacial acetic acid, 16% sodium dodecyl sulfate) was then added to each well and plates were incubated at room temperature in the dark overnight. For HepG2 cells, media was aspirated, 50 μL of DMSO was added and plates were mixed briefly with an orbital plate shaker. Absorbance at 570 nm was measured using a Perkin-Elmer EnVision plate reader.
Absorbance values were converted to percentage of vehicle-treated controls. Data was then analyzed using a non-linear regression (variable slope (four-parameter)) equation in GraphPad Prism 7.0.
Table 2 provides THP-1 cytotoxicity assay CC50 values for example compounds. A indicates CC50>10 μM; B indicates CC50 between 1 and 10 μM (inclusive); C indicates CC50<1 μM. NT, not tested.

In general, EC50 refers to the concentration giving half of the maximal effect. A low value points to greater potency. In general, CC50 refers to the concentration that lowers cell viability or growth by half.

Structures are written as SMILES.

For the compound `C[N+]12CC(=O)O[B-]1(c1cccc(S(=O)(=O)NC(=O)Nc3c4c(cc5c3CCC5)CCC4)c1)OC(=O)C2` (centres unmarked) [Example 26, N-((1,2,3,5,6,7-hexahydro-s-indacen-4-yl)carbamoyl)-3-(4-methyl-2,6-dioxotetrahydro-2H-414,814-[1,3,2]oxazaborolo[2,3-b][1,3,2]oxazaborol-8-yl)benzenesulfonamide], the half-maximal effective concentration (EC50) in data set [1] is < 1 µM. Moreover, the CC50 at 72 h in data set [2] is > 10 µM.

With `C[N+]12CC(=O)O[B-]1(c1ccc(S(=O)(=O)NC(=O)Nc3c4c(cc5c3CCC5)CCC4)cc1)OC(=O)C2` (centres unmarked) [Example 27, N-((1,2,3,5,6,7-hexahydro-s-indacen-4-yl)carbamoyl)-4-(4-methyl-2,6-dioxotetrahydro-2H-414,814-[1,3,2]oxazaborolo[2,3-b][1,3,2]oxazaborol-8-yl)benzenesulfonamide], in data set [1], the EC50 is < 1 µM. For the same compound, the half-maximal cytotoxic concentration (CC50) at 72 h in data set [2] is > 10 µM.

Take `C[N+]12CCO[B-]1(c1cccc(S(=O)(=O)NC(=O)Nc3c4c(cc5c3CCC5)CCC4)c1)OCC2` (centres unmarked) [Example 28, N-((1,2,3,5,6,7-hexahydro-s-indacen-4-yl)carbamoyl)-3-(4-methyltetrahydro-2H-414,814-[1,3,2]oxazaborolo[2,3-b][1,3,2]oxazaborol-8-yl)benzenesulfonamide]: in data set [1], the concentration for a half-maximal effect (EC50) was < 1 µM. The 50% cytotoxic concentration (CC50) at 72 h in data set [2] is > 10 µM.

`O=C(Nc1c2c(cc3c1CCC3)CCC2)NS(=O)(=O)c1ccc2c(c1)COB2O` [Example 29, N-((1,2,3,5,6,7-hexahydro-s-indacen-4-yl)carbamoyl)-1-hydroxy-1,3-dihydrobenzo[c][1,2]oxaborole-5-sulfonamide]: the EC50 in data set [1] is < 1 µM. The CC50 at 72 h in data set [2] was > 10 µM.

`CC(C)c1cc(B2OC(C)(C)C(C)(C)O2)cc(C(C)C)c1NC(=O)NS(=O)(=O)c1ccn(C(C)C)n1` [Example 30, N-((2,6-diisopropyl-4-(4,4,5,5-tetramethyl-1,3,2-dioxaborolan-2-yl)phenyl)carbamoyl)-1-isopropyl-1H-pyrazole-3-sulfonamide]: in data set [1], the EC50 lay in the range of 1 to 10 µM. In data set [2], the CC50 at 72 h is > 10 µM.

With `CC(C)c1cc(B(O)O)cc(C(C)C)c1NC(=O)NS(=O)(=O)c1ccn(C(C)C)n1` [Example 31, (3,5-diisopropyl-4-(3-((1-isopropyl-1H-pyrazol-3-yl)sulfonyl)ureido)phenyl)boronic acid], the EC50 in data set [1] is > 10 µM. Also, the CC50 at 72 h in data set [2] is > 10 µM.

As to `COc1ccc(S(=O)(=O)NC(=O)Nc2c3c(cc4c2CCC4)CCC3)cc1CCB1OC(C)(C)C(C)(C)O1` [Example 32, N-((1,2,3,5,6,7-hexahydro-s-indacen-4-yl)carbamoyl)-4-methoxy-3-(2-(4,4,5,5-tetramethyl-1,3,2-dioxaborolan-2-yl)ethyl)benzenesulfonamide], the EC50 in data set [1] fell in the range of 1 to 10 µM. Also, in data set [2], the CC50 at 72 h is > 10 µM.

In turn, `O=C(Nc1c2c(cc3c1CCC3)CCC2)NS(=O)(=O)c1ccc2c(c1)CCB(O)O2` [Example 33, N-((1,2,3,5,6,7-hexahydro-s-indacen-4-yl)carbamoyl)-2-hydroxy-3,4-dihydro-2H-benzo[e][1,2]oxaborinine-6-sulfonamide] gave an EC50 in data set [1] of 1 to 10 µM. For the same compound, the CC50 at 72 h in data set [2] was > 10 µM.

In data set [1], `O=C(Nc1c2c(cc3c1CCC3)CCC2)NS(=O)(=O)c1cc(F)cc2c1B(O)OC2` [Example 34, 5-fluoro-N-((1,2,3,5,6,7-hexahydro-s-indacen-4-yl)carbamoyl)-1-hydroxy-1,3-dihydrobenzo[c][1,2]oxaborole-7-sulfonamide] gave a concentration giving a half-maximal response (EC50) of 1 to 10 µM. Besides, the 50% cytotoxic concentration (CC50) at 72 h in data set [2] was > 10 µM.

Consider `COC(=O)c1ccc(S(=O)(=O)NC(=O)Nc2c3c(cc4c2CCC4)CCC3)cc1B(O)O` [Example 35, (5-(N-((1,2,3,5,6,7-hexahydro-s-indacen-4-yl)carbamoyl)sulfamoyl)-2-(methoxycarbonyl)phenyl)boronic acid], for which the EC50 in data set [1] is > 10 µM. Moreover, the half-maximal cytotoxic concentration (CC50) at 72 h in data set [2] was > 10 µM.

Turning to `O=C(Nc1c2c(cc3c1CCC3)CCC2)NS(=O)(=O)c1ccc2c(c1)B(O)OC2=O` [Example 36, N-((1,2,3,5,6,7-hexahydro-s-indacen-4-yl)carbamoyl)-1-hydroxy-3-oxo-1,3-dihydrobenzo[c][1,2]oxaborole-6-sulfonamide], in data set [1], the 50% effective concentration (EC50) is > 10 µM. Also, the cytotoxic concentration (CC50) at 72 h in data set [2] is > 10 µM.

On to `O=C(Nc1c2c(cc3c1CCC3)CCC2)NS(=O)(=O)c1ccc(O)c(CCCB(O)O)c1` [Example 37, (3-(5-(N-((1,2,3,5,6,7-hexahydro-s-indacen-4-yl)carbamoyl)sulfamoyl)-2-hydroxyphenyl)propyl)boronic acid], for which, in data set [1], the EC50 was 1 to 10 µM. Further, in data set [2], the CC50 at 72 h was > 10 µM.

Turning to `O=C(Nc1c2c(cc3c1CCC3)CCC2)NS(=O)(=O)c1ccc(O)c(CB(O)O)c1` [Example 38, (5-(N-((1,2,3,5,6,7-hexahydro-s-indacen-4-yl)carbamoyl)sulfamoyl)-2-hydroxybenzyl)boronic acid], the EC50 in data set [1] lay within 1 to 10 µM. In addition, the CC50 at 72 h in data set [2] is > 10 µM.

In the case of `COc1ccc(S(=O)(=O)NC(=O)Nc2c3c(cc4c2CCC4)CCC3)cc1CB(O)O` [Example 39, (5-(N-((1,2,3,5,6,7-hexahydro-s-indacen-4-yl)carbamoyl)sulfamoyl)-2-methoxybenzyl)boronic acid], in data set [1], the concentration for a half-maximal effect (EC50) was 1 to 10 µM. For the same compound, the CC50 at 72 h in data set [2] was > 10 µM.

As for `O=C(Nc1c2c(cc3c1CCC3)CCC2)NS(=O)(=O)c1ccc(CCCB(O)O)c(O)c1` [Example 40, (3-(4-(N-((1,2,3,5,6,7-hexahydro-s-indacen-4-yl)carbamoyl)sulfamoyl)-2-hydroxyphenyl)propyl)boronic acid], the half-maximal effective concentration (EC50) in data set [1] was 1 to 10 µM. Also, the half-maximal cytotoxic concentration (CC50) at 72 h in data set [2] was > 10 µM.

For the compound `O=C(Nc1c2c(cc3c1CCC3)CCC2)NS(=O)(=O)c1ccc2c(c1)OB(O)CC2` [Example 41, N-((1,2,3,5,6,7-hexahydro-s-indacen-4-yl)carbamoyl)-2-hydroxy-3,4-dihydro-2H-benzo[e][1,2]oxaborinine-7-sulfonamide], the EC50 in data set [1] lay in the range of 1 to 10 µM. In addition, in data set [2], the CC50 at 72 h was > 10 µM.

`COc1cc(S(=O)(=O)NC(=O)Nc2c3c(cc4c2CCC4)CCC3)ccc1CB1O[C@@H]2C[C@@H]3C[C@@H](C3(C)C)[C@]2(C)O1` [Example 42, N-((1,2,3,5,6,7-hexahydro-s-indacen-4-yl)carbamoyl)-3-methoxy-4-(((3aS,4S,6S,7aR)-3a,5,5-trimethylhexahydro-4,6-methanobenzo[d][1,3,2]dioxaborol-2-yl)methyl)benzenesulfonamide]: the EC50 in data set [1] was < 1 µM. Further, the CC50 at 72 h in data set [2] was > 10 µM.

`COc1ccc(S(=O)(=O)NC(=O)Nc2c3c(cc4c2CCC4)CCC3)cc1B(O)O` [Example 43, (5-(N-((1,2,3,5,6,7-hexahydro-s-indacen-4-yl)carbamoyl)sulfamoyl)-2-methoxyphenyl)boronic acid]: in data set [1], the 50% effective concentration (EC50) was in the range of 1 to 10 µM. Also, the CC50 at 72 h in data set [2] is > 10 µM.

For `O=C(Nc1c2c(cc3c1CCC3)CCC2)NS(=O)(=O)c1ccc(CB(O)O)c(O)c1` [Example 44, (4-(N-((1,2,3,5,6,7-hexahydro-s-indacen-4-yl)carbamoyl)sulfamoyl)-2-hydroxybenzyl)boronic acid], in data set [1], the concentration for a half-maximal effect (EC50) was 1 to 10 µM. The 50% cytotoxic concentration (CC50) at 72 h in data set [2] is > 10 µM.

For the compound `COc1ccc(S(=O)(=O)NC(=O)Nc2c3c(cc4c2CCC4)CCC3)cc1CCCB1OC(C)(C)C(C)(C)O1` [Example 45, N-((1,2,3,5,6,7-hexahydro-s-indacen-4-yl)carbamoyl)-4-methoxy-3-(3-(4,4,5,5-tetramethyl-1,3,2-dioxaborolan-2-yl)propyl)benzenesulfonamide], the EC50 in data set [1] is 1 to 10 µM. In addition, in data set [2], the CC50 at 72 h was > 10 µM.

The compound `CC1(C)OB(CCCc2cccc(S(=O)(=O)NC(=O)Nc3c4c(cc5c3CCC5)CCC4)c2)OC1(C)C` [Example 46, N-((1,2,3,5,6,7-hexahydro-s-indacen-4-yl)carbamoyl)-3-(3-(4,4,5,5-tetramethyl-1,3,2-dioxaborolan-2-yl)propyl)benzenesulfonamide] displayed a concentration giving a half-maximal response (EC50) in data set [1] of 1 to 10 µM. In data set [2], the half-maximal cytotoxic concentration (CC50) at 72 h was > 10 µM.

`CC1(C)OB(O)c2cc(S(=O)(=O)NC(=O)Nc3c4c(cc5c3CCC5)CCC4)ccc21` [Example 47, N-((1,2,3,5,6,7-hexahydro-s-indacen-4-yl)carbamoyl)-1-hydroxy-3,3-dimethyl-1,3-dihydrobenzo[c][1,2]oxaborole-6-sulfonamide] yielded a half-maximal effective concentration (EC50) in data set [1] of 1 to 10 µM. In data set [2], the half-maximal cytotoxic concentration (CC50) at 72 h was > 10 µM.
